Tests used:
[1] = target: T1, VDR (Homo sapiens, UniProt P11473); test: VDR CTF (Caco-2 cells) co-transfection assay; type: cell-based; settings: pGal4-VDR-LBD, luciferase reporter
T1 construct: the receptor expression vector pGal4-VDR-LBD (10 ng); expressed in transfected cells; host or cells: Caco-2 cells
T1 sequence (P11473 127-423 limits assumed): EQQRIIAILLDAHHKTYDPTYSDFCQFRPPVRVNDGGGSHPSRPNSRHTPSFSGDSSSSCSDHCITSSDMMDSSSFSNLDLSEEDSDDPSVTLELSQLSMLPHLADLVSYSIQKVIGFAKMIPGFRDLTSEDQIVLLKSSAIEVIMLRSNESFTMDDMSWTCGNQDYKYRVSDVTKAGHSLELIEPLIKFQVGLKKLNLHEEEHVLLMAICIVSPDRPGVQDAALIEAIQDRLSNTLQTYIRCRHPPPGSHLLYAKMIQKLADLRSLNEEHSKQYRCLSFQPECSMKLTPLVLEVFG
Protocol: 3. The VDR CTF (Caco-2 cells) test is described in the “Assay” section of the Description, infra.
The Caco-2 cell assay is an indicator for the undesirable condition of hypercalcemia. This co-transfection assay is a surrogate assay for in vivo calcemic activity of VDR ligands. It is desirable to have high EC50 values for a test compound in this assay. The higher the EC50 values for a compound the less calcemic it will be in vivo. Desired assay results are EC50 greater than or equal to 300 nM. Preferred assay results are greater than 1000 nM.
Caco-2 cells, grown in phenol red free, DMEM (Invitrogen, Carlsbad, Calif.) containing 10% charcoal-stripped FBS (Hyclone, Logan, Utah), are transfected with Fugene 6 reagent (Roche Diagnostics, Indianapolis, Ind.). Cells (5000/well) are plated 18 h before transfection in a 96 well plate. The cells are transfected with Gal4-responsive reporter pFRLuc (150 ng, Stratagene, La Jolla Calif.) and the receptor expression vector pGal4-VDR-LBD (10 ng), along with Fugene 6 reagent (0.2 μl/well). The DNA-Fugene complex is formed by incubating the mixture for 30 m at room temperature. The cells are transfected in triplicate for 5 h, and treated with various concentrations of VDR ligands (from 0.01 nM to […] concentration range) 18 h post-transfection. The luciferase activity is quantified using Steady-Glo reagent kit (Promega, Madison, Wis.) as per manufacturer's specifications.

[2] = system: rat osteocalcin promoter; test: OCN (osteocalcin) promoter assay; type: cell-based; settings: RG-15 (ROS 17/2.8) cells, 48 hr treatment, luciferase reporter
Protocol: 4. The OCN Promoter test is described in the “Assay” section of the Description, infra.
The OCN (Osteocalcin) Promoter Assay
The OCN Promoter Assay is an indicator and marker for osteoporosis. Desired assay results are EC50 less than or equal to 325 nM. Preferred assay results are less than 50 nM.
The activation of osteocalcin by VDR ligands is evaluated in a rat osteoblast-like cell line RG-15 (ROS 17/2.8) stably expressing rat osteocalcin promoter fused with luciferase reporter gene. The stable cell lines are established as reported before (Activation of Osteocalcin Transcription involves interaction of protein kinase A- and Protein kinase C-dependent pathways. Boguslawski, G., Hale, L. V., Yu, X.-P., Miles, R. R., Onyia, J. E., Santerre R. F., Chandrasekhar, S. J Biol. Chem. 275, 999-1006, 2000). Confluent RG-15 cells maintained in DMEM/F-12 medium (3:1) containing 5% FBS, 300 μg/ml G418 and at 37° C. under 5% CO2/95% air atmosphere are trypsinized (0.25% trypsin) and plated into white opaque 96-well cell culture plates (25000 cells/well). After 24 hr, cells (in DMEM/F-12 medium+2% FBS) are treated with various concentrations of compounds, dissolved in DMSO. The final DMSO concentration remains at 0.01% (v/v). After 48 hr treatment, the medium is removed, cells are lysed with 50 μl of lysis buffer (From Luciferase reporter assay system, Roche Diagnostics, Indianapolis, Ind.) and then assayed for luciferase activity using the Luciferase Reporter Gene Assay kit from Boehringer Mannheim as per manufacturer's specifications.

[3] = Mouse hypercalcemia assay; type: in vivo
Protocol: 5. The Mouse Hypercalcemia test is described in the “Assay” section of the Description, infra.
The Mouse Hypercalcemia Assay
The Mouse Hypercalcemia Assay is a six day hypercalcemia test for toxicity and selectivity. Acceptable test results are levels greater than 30 μg/kg/day. Preferred assay results are levels greater than 300 μg/kg/day.
Weanling, virus—antibody-free, five to six weeks old female DBF mice (Harlan, Indianapolis, Ind.) are used for all the studies. Animals are allowed to acclimate to local vivarium conditions for 2 days. Mice are maintained on a 12 hr light/dark cycle at 22° C. with ad lib access to food (TD 5001 with 1.2% Ca and 0.9% P, Teklad, Madison, Wis.) and water. The animals then are divided into groups with 4-5 mice per group. Different doses of test compounds prepared in 10% ethanol and 90% sesame oil, or in an aqueous suspension of sodium lauryl sulfate and CMC (the latter formulation for acidic compounds) are administered to mice orally via gavage for 6 days. 1α-25(OH)2D3 0.5 μg/kg/d was also given to one group of mice as the positive control. Serum ionized calcium is evaluated at 6 hours after the last dosing under isoflurane anesthesia by Ciba-Corning Ca++/PH Analyzer, (Model 634, Chiron Diagnostics Corp., East Walpole, Mass.). Raw data of group differences is assessed by analysis of variance (ANOVA) using Fisher's protected least significant difference (PLSD) where the significance level was P<0.05.

[4] = system: KERtr cells (Human skin keratinocyte); test: Keratinocyte proliferation assay; type: cell-based; settings: 72 hr, BrdU incorporation, read-out: Keranocyte Proliferation IC50
Protocol: 6. The keratinocyte proliferation assay is described in the “Assay” section of the Description, infra.
The Keratinocyte Proliferation Assay
This Assay is indicative for the treatment of psoriasis. An acceptable test result is IC50 value of less than or equal to 300 nM. Preferred assay results are IC50 values of less than 100 nM.
KERtr cells (Human skin keratinocyte are transformed with a retrovirus vector, obtained from ATCC, then are plated in 96-well flat-bottomed plates (3000 cells/well) in 100 μl keratinocyte serum free medium supplemented with bovine pituitary extract in the absence of EGF (Life Technologies, Rockville, Md.) and are incubated at 37° C. for two days. The cells are treated with various concentrations of VDR ligands (ten-fold serial dilution from 10,000 nM to 0.1 nM in triplicate), dissolved in 100 μl keratinocyte serum free medium supplemented with bovine pituitary extract in the absence of EGF and are incubated at 37° C. for 72 hr. BrdU (5-bromo-2′-deoxyuridine) incorporation is analyzed as a measure of DNA replication (Cell proliferation ELISA kit, Roche Diagnostics, Indianapolis, Ind.) and absorbance is measured at […]. Potency values (IC50) values were determined as the concentration (nM) of compound that elicited a half-maximal response.

[5] = female, DBF, mouse, in vivo, po, 6 days
[6] = no effect level: highest dose that did not cause hypercalcemia, oral gavage for 6 days, female DBF mice, serum ionized calcium

Row | Structure (SMILES) | EC50 [1] [nM] | EC50 ([2]; Rattus norvegicus, 48 h) [nM] | Mouse Hypercal [3, 5] [µg/kg/day] | IC50 [4] [nM] | Mouse Hypercal [3, 6] [µg/kg/day] | EC50 [2] [nM]
1 | CCC(CC)(c1ccc(OCC(=O)C(C)(C)C)c(C)c1)c1ccc2cc(C(=O)N(C)C)ccc2c1 [Ex. 4, 6-{1-[4-(3,3-dimethyl-2-oxobutoxy)-3-methylphenyl]-1-ethylpropyl}naphthalene-2-carboxylic acid dimethylamide] | 550 | 41 | 1000 | > 1000 |  | 
2 | CCC(CC)(c1ccc(OCC(=O)C(C)(C)C)c(C)c1)c1ccc2cc(C(=O)O)ccc2c1 [Ex. 1, 6-{1-[4-(3,3-dimethyl-2-oxobutoxy)-3-methylphenyl]-1-ethylpropyl}naphthalene-2-carboxylic acid] | 194 | 2.6 | 1000 | 653 |  | 
3 | CCC(CC)(c1ccc(OCC(=O)C(C)(C)C)c(C)c1)c1ccc2cc(C(=O)N(C)CC(=O)O)ccc2c1 [Ex. 5, [(6-{1-[4-(3,3-Dimethyl-2-oxobutoxy)-3-methylphenyl]-1-ethylpropyl}naphthalene-2-carbonyl)methylamino]acetic acid] | 162 | 0.2 |  | 24 | <30 | 
4 | CCC(CC)(c1ccc(OCC(O)C(C)(C)C)c(C)c1)c1ccc2cc(C(=O)O)ccc2c1 (single isomer, unassigned) [Ex. 2A, 6-{1-Ethyl-1-[4-(2-hydroxy-3,3-dimethyl-butoxy)-3-methyl-phenyl]-propyl}-naphthalene-2-carboxylic acid] | 466 |  |  |  | 300 | 6
5 | CCC(CC)(c1ccc(OCC(=O)C(C)(C)C)c(C)c1)c1ccc2cc(C(=O)NCC(=O)O)ccc2c1 [Ex. 3, [(6-{1-[4-(3,3-Dimethyl-2-oxo-butoxy)-3-methylphenyl]-1-ethylpropyl}naphthalene-2-carbonyl)amino]acetic acid] | 35 | 0.1 |  | 2 | <300 | 

— US7943795B2, “Vitamin D receptor modulators” (Eli Lilly and Company, priority 2004, dated 2011)
